Results as given in US20160051491A1, “NOVEL USE OF PINOSYLVIN FOR ANGIOGENESIS PROMOTION” (INDUSTRY-ACADEMIC COOPERATION FOUNDATION, DANKOOK UNIVERSITY, priority 2013, published 2016).

Tests used:
caspase-3 = assay: Caspase-3 cleavage (Western blot) and caspase-3 colorimetric activity (Ac-DEVD-pNA) in BAEC lysates; assay type: cell-based, Bovine; details: FIGS. 1C and 1D
Description: Caspase-3 activity was measured with Ac-DEVD-pNA as a substrate using the caspase-3 Colorimetric Activity Assay Kit (Chemicon). Specifically, BAECs were grown to confluency in 20% FBS-DMEM and then starved for more than 8 hours. The cells were treated with various apoptotic agents (100 μM ETO) and then lysed. The cell lysates were reacted in a reaction buffer containing 236 μM Ac-DEVD-pNA with or without specific inhibitors (0.1 μM Ac-DEVD-CHO) in 96-well plates at 37° C. for 2 hours. Then, the caspase-3 activity was determined by measuring the absorbance of the reactions at 405 nm using a microplate reader (Bio-Rad, Model 550).
(§1) The BAECs were grown to confluency in 20% FBS-DMEM, washed with ice-cold PBS, scraped in 250 μL RIPA buffer (50 mM Tris, pH 7.5, 150 mM NaCl, 1% NP-40, 0.5% sodium deoxycholate, and 0.1% SDS), and solubilized for 15 minutes to prepare the cell lysates. All the solubilization procedures were performed at 4° C., and the protein content of the soluble cell lysates was measured using a Bio-Rad DC assay kit (Bio-Rad). The solution lysates (10 μg each) were resolved by SDS-PAGE. The resolved protein bands were then transferred to a polyvinylidene difluoride (PVDF) membrane (Bio-Rad) and probed with p-ERK (cell signaling), p-p38 MAP kinase (cell signaling), p-JNK (cell signaling), p-eNOS (cell signaling), p-Akt (cell signaling) and caspase-3 (cell signaling) for 1 hour to overnight. The membranes were then incubated with a secondary antibody at room temperature for 1 hour, where goat anti-rabbit IgG conjugated to alkaline phosphatase was used as a secondary antibody. Finally, the results were confirmed using a chemiluminescent detection method.

[1] = tested on: Bovine aortic endothelial cells (BAECs); assay: Etoposide-induced apoptosis, Hoechst 33258 staining of fragmented nuclei; assay type: cell-based; details: FIG. 1B
Description: (§2) Bovine aortic endothelial cells (BAECs) were obtained from the descending thoracic aortas, and maintained in a growth medium (DMEM (1 g/L glucose, Life technologies, Inc.) containing 20% fetal bovine […] (FBS, Atlanta Biologicals) without antibiotics) at 37° C. in 5% CO2. The number of cells used for used in this study was between 3 generations and 10 generations, and they were allowed to grow in untreated culture dishes. Before drug treatment, BAECs were grown to confluency in a 5% CO2 incubator with growth media containing 50 μg/mL penicillin and 50 μg/mL streptomycin. The cells were then starved for between 4 hours and 24 hours in starvation media (DMEM supplemented with 0.5% FBS and 50 μg/mL penicillin and 50 μg/mL streptomycin).
For the apoptotic analysis, the confluent cells were incubated in 0.5% FBS-DMEM containing 0 μM or 100 μM etoposide (ETO, Sigma) or varying amounts of pinosylvin for 36 hours. […]
For Hoechst staining, the confluent cells were incubated with 0.5% FBS-DMEM containing 100 μM ETO without any compound (vehicle control) for 36 hours. […] After incubation, the stained cells were thoroughly washed with PBS and the nuclei were observed under a fluorescence microscope (Zeiss Autoplan 2) to confirm the occurrence of apoptosis.

eNOS = assay: Western blotting of p-eNOS in BAECs; assay type: cell-based, Bovine; details: 1 pM pinosylvin, 0 to 60 minutes, serum-depleted BAECs, FIG. 2
Description: as §1

p38 MAP kinase = assay: Western blotting of p-p38 MAP kinase in BAECs; assay type: cell-based, Bovine; details: 1 pM pinosylvin, 0 to 60 minutes, serum-depleted BAECs, FIG. 2
Description: as §1

ERK = assay: Western blotting of p-ERK in BAECs; assay type: cell-based, Bovine; details: 1 pM pinosylvin, 0 to 60 minutes, serum-depleted BAECs, FIG. 2
Description: as §1

[2] = tested on: Bovine aortic endothelial cells (BAECs); assay: Endothelial cell proliferation (microscopy, WST-1 assay); assay type: cell-based
Description: as §2
Cell proliferation was measured using a cell viability assay kit (Daeil Lab Service Co., LTD., Seoul, Korea). Specifically, confluent BAECs were serum-starved for 16 hours, and then various concentrations of pinosylvin or 20% serum were added and incubated. The cells were washed more than twice with PBS and reacted with the WST-1 reagent. The live cells were then measured at 450 nm using an ELISA microplate reader (Bio-Rad, Model 550).

[3] = tested on: Bovine aortic endothelial cells (BAECs); assay: Endothelial tube formation on ECM gel; assay type: cell-based; details: FIG. 4B
Description: ECM gel (Cell Biolabs Inc.) was thawed overnight at 4° C. Then, the thawed gel 50 μL was added into each well of the 96-well plates. To form a gel, the 96-well plates were incubated at 37° C. for 1 hour. Then, the BAEC suspension (1.5×10^4 cells/100 μL) containing no pinosylvin, 1 pM pinosylvin, or 1 pM pinosylvin with 2.5 mM L-NAME, in DMEM, respectively, was added into a gel and placed in a 5% CO2 incubator at 37° C. for 12 hours to 18 hours. Then, the endothelial cells were observed under a microscope to confirm tube formation.

[4] = tested on: Bovine aortic endothelial cells (BAECs); assay: Endothelial cell migration (wound scrape); assay type: cell-based; details: 1 pM pinosylvin, FIG. 4A
Description: Confluent BAECs were treated twice with 2 mM thymidine for 18 hours and wounded with a pipette tip. Then, the cells were incubated in the starvation media for 20 hours with increasing amounts of pinosylvin: 1) no pinosylvin, 2) 1 pM pinosylvin, or 3) 1 pM pinosylvin with 2.5 mM L-NAME, in DMEM, respectively. The migrated cells were observed under a microscope and quantified by counting the number of the migrated cells in the wound area.

[5] = tested on: Bovine aortic endothelial cells (BAECs); assay: Serum starvation-induced apoptosis of endothelial cells (apoptotic cell count under microscope); assay type: cell-based
Description: as §2
[…] Since pinosylvin is not commercially available, it was synthesized as described (Park et al., Cell Physiol Biochem. 2011; 27(3-4): 353-62.). […]
Confluent BAECs were starved for more than 4 hours, treated with pinosylvin, and then incubated for an additional period of time (0 hours, 12 hours, 24 hours, and 48 hours) for the evaluation of time-dependent changes in apoptosis. […] For quantification, the present inventors counted the number of apoptotic cells in the same visual field.

Akt = assay: Western blotting of p-Akt in BAECs; assay type: cell-based, Bovine; details: 1 pM pinosylvin, 0 to 60 minutes, serum-depleted BAECs, FIG. 2
Description: as §1

JNK = assay: Western blotting of p-JNK in BAECs; assay type: cell-based, Bovine; details: 1 pM pinosylvin, 0 to 60 minutes, serum-depleted BAECs, FIG. 2
Description: as §1

COc1cc([C@@H]2c3cc4c(cc3[C@@H](O[C@@H]3O[C@@H]5CO[C@@H](C)O[C@H]5[C@H](O)[C@H]3O)[C@H]3COC(=O)[C@H]23)OCO4)cc(OC)c1O [ETO, etoposide, reference compound]
caspase-3 activation (caspase-3; 100 μM ETO): activate caspase-3
fragmentation of the nuclei (Hoechst 33258 staining) ([1]; cells treated with 100 μM ETO alone): detected

Oc1cc(O)cc(/C=C/c2ccccc2)c1 [pinosylvin, 5-[(E)-2-phenylethenyl]benzene-1,3-diol]
eNOS phosphorylation (eNOS): substantially promoted
ETO-induced caspase-3 activation (caspase-3; 1 pM pinosylvin, 100 μM ETO): inhibited
starvation-induced caspase-3 activation (caspase-3; 1 pM pinosylvin, serum-depleted cells): inhibited
p38 phosphorylation (p38 MAP kinase): remained largely unchanged
ERK phosphorylation (ERK): remained largely unchanged
number of cells compared with untreated cells (microscope) ([2]; 1 pM pinosylvin, thirty percent confluent BAECs, FIG. 3A): increased
cell proliferation, WST-1 assay ([2]; DMEM with none or 20% serum, 24 hours, FIG. 3B): promote cell proliferation regardless of the presence of serum
effect of tube formation by pinosylvin when treated concurrently with L-NAME ([3]; 1 pM pinosylvin with 2.5 mM L-NAME (eNOS inhibitor)): reduced
tube formation compared to the control group ([3]; 1 pM pinosylvin): significantly increase tube formation
cell migration [4]: significantly promote cell migration
fragmentation of the nuclei (Hoechst 33258 staining), ETO-induced ([1]; 1 pM pinosylvin together with 100 μM ETO): markedly reduced level
starvation-induced apoptosis, apoptotic cells counted per visual field ([5]; 1 pM to 10 μM of pinosylvin, FIG. 1A bottom panel): inhibited
serum starvation-induced apoptosis (round and shrunken cells) ([5]; BAECs serum-starved for 72 hours, low dose of pinosylvin, FIG. 1A top panel): prevent serum starvation-induced apoptosis
Akt phosphorylation (Akt): substantially promoted
JNK phosphorylation (JNK): remained largely unchanged
